Experimental data: US12551532B2, “Long-acting amylin receptor agonists and uses thereof” (Eli Lilly and Company, priority 2021, dated 2026)
Starred links: 1 amine or outer side, 2 acyl side, 3 side chain; linkers in the order of their positions; H or OH if unused. Positions of bridges follow the written chain, without caps; N, C: chain ends. Non-standard residues stand in square brackets, D forms with d. Residues, ends and D or L forms follow the SMILES beside them. Groups on a side chain read outwards from the residue. *: point of attachment. C20 diacid = O=C(O)CCCCCCCCCCCCCCCCCCC(=O)*; γGlu = O=C(O)[C@H](CCC(=O)[*:2])N[*:1]; αMeF = C[C@](N)(Cc1ccccc1)C(=O)O; NMeD = CN[C@@H](CC(=O)O)C(=O)O; NMeN = CN[C@@H](CC(N)=O)C(=O)O; αMeL = CC(C)C[C@](C)(N)C(=O)O; Orn = NCCC[C@H](N)C(=O)O; AEEA = NCCOCCOCC(=O)O; CH2 = C([*:1])[*:2]

What was measured:
hAMY1R = molecular target: T1, hAMY1R (Homo sapiens, UniProt O60894+P30988); experiment: hAMY1R cAMP functional activity (HTRF); type: cell-based; conditions: ±SE; UMUC3 cells overexpressing hAMY1R; relative EC50
T1 construct: expressed in transfected cells
T1 sequence (O60894 27-148 partner, one chain of several): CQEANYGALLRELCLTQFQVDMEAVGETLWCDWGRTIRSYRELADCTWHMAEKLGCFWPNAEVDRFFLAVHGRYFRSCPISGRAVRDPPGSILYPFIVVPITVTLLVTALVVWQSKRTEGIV
Procedure: (§1) The AMY1 and CT receptors are GPCRs that are functionally coupled to Gas proteins. […] In vitro activity of peptides is measured by the amount of cAMP formed in human AMY1R and CTR overexpressed cells.
Human AMY1R stable cell lines are generated by further transfecting human RAMP1-pCMVpuroPB (T14213) into UMUC3 hCTR clone cells. After selection, the mRNA levels human RAMP1 from different clones are measured to confirm the expression of human AMY1R.
(§2) hAMY1R cells are cultured in MEM 1× (Corning) supplemented with 10% FBS, 1% antibiotic/antimycotic solution, 1 mM sodium pyruvate, 1×MEM NEAA, 1× GlutaMAX-I, 200 μg/mL hygromycin B, and 0.4 μg/mL puromycin. The hCTR cells are cultured in the same medium lacking the puromycin. Cultured cells are grown to 70% confluency and then incubated overnight with fresh medium.
(§3) Peptides diluted in DMSO are added (200 nL/well) in a 1:3 dilution series using ECHO acoustic liquid handler (Beckman). Cultured cells are detached with TrypLE Express (Gibco), resuspended in assay buffer, and 10 μL containing 1200 cells/well (hCTR) or 1500 cells/well (hAMY1R) are dispensed into each well. The plates are incubated at room temperature for 1 hour.
(§4) The amount of intracellular cAMP is quantitated using HTRF technology (Homogeneous Time Resolved Fluorescence; Cisbio) as per vendor instructions. Briefly, 10 μL cAMP-d2 conjugate and 10 μL anti-cAMP-cryptate conjugate in lysis buffer are incubated with the treated cells at room temperature for 60 min. […] The raw data are converted to cAMP amount (pmol/well) using a cAMP standard curve generated for each experiment.

human CT receptors = molecular target: T2, human CT receptors (Homo sapiens, UniProt P30988); experiment: hCTR cAMP functional activity (HTRF); type: cell-based; conditions: ±SE; UMUC3 cells overexpressing hCTR; relative EC50
T2 construct: expressed in transfected cells
T2 sequence (P30988 25-474): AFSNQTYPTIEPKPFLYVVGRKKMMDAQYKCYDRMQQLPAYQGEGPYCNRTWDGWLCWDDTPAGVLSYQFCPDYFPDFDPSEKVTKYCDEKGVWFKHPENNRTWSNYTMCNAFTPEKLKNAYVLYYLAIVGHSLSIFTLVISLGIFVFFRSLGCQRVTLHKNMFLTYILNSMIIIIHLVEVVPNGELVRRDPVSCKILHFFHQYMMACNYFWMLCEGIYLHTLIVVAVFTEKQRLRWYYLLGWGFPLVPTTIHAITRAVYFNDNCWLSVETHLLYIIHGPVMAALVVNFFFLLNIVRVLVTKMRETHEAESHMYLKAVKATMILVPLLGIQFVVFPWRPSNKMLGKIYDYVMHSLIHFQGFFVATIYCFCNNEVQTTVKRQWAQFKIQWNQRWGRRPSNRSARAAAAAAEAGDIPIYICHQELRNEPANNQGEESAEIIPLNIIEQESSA
Procedure: as §1
Human CT receptors are stably expressed in human urinary bladder cells (UM-UC-3, or UMUC3) under control of a pcDNA expression vector. […] After 20 days under selection, the mRNA levels from different clones are measured to confirm the expression of hCTR. To determine the function of over-expressed hCTR cells, the intracellular cAMP levels in response to salmon calcitonin are measured and compared to the expression of hCTR mRNA in each clone.
as §2, §3, §4

Row | EC50 (hAMY1R) [nM] | EC50 (human CT receptors) [nM] | Compound
1 | 0.133 ± 0.012 | 18 ± 1.08 | CC(C)C[C@H](NC(=O)[C@H](CCCN)NC(=O)CNC(=O)[C@@H](NC(=O)[C@H](C)NC(=O)[C@@H]1CSCSC[C@H](NC(=O)CC[C@H](N)C(=O)O)C(=O)N[C@@H](CC(N)=O)C(=O)N[C@@H]([C@@H](C)O)C(=O)N[C@@H](C)C(=O)N[C@@H]([C@@H](C)O)C(=O)N1)[C@@H](C)O)C(=O)N[C@@H](C)C(=O)N[C@@H](CCC(=O)O)C(=O)N[C@@](C)(Cc1ccccc1)C(=O)N[C@@H](CC(C)C)C(=O)N[C@H](C(=O)N[C@@H](CCCNC(=N)N)C(=O)N[C@@H](CO)C(=O)N[C@@H](CO)C(=O)N[C@@H](CC(N)=O)C(=O)N(C)[C@@H](CC(N)=O)C(=O)N[C@@H](Cc1ccccc1)C(=O)NCC(=O)N1CCC[C@H]1C(=O)N[C@@H](CCCCN)C(=O)N[C@@H](CC(C)C)C(=O)N1CCC[C@H]1C(=O)N1CCC[C@H]1C(=O)N[C@H](C(=O)N[C@@H](CCC(=O)O)C(=O)N[C@H](C(=O)NCC(=O)N[C@@H](CO)C(=O)N[C@@H](CC(N)=O)C(=O)N[C@H](C(=O)N[C@@H](Cc1ccc(O)cc1)C(N)=O)[C@@H](C)O)C(C)C)[C@@H](C)O)C(C)C [Compound I, γE-CNTATCATG-Orn-LAE-αMeF-LVRSSN-NMeN-FGPKLPPTEVGSNTY-NH2] (γGlu-CNTATCATG[Orn]LAE[αMeF]LVRSSN[NMeN]FGPKLPPTEVGSNTY-NH2; linker 1-6 via CH2)
2 | 0.156 ± 0.027 | 16.3 ± 3.03 | CC(C)C[C@H](NC(=O)[C@H](CCCN)NC(=O)CNC(=O)[C@@H](NC(=O)[C@H](C)NC(=O)[C@@H]1CSCSC[C@H](NC(=O)CC[C@H](N)C(=O)O)C(=O)N[C@@H](CC(N)=O)C(=O)N[C@@H]([C@@H](C)O)C(=O)N[C@@H](C)C(=O)N[C@@H]([C@@H](C)O)C(=O)N1)[C@@H](C)O)C(=O)N[C@@H](C)C(=O)N[C@@H](CCC(=O)O)C(=O)N[C@@](C)(Cc1ccccc1)C(=O)N[C@@H](CC(C)C)C(=O)N[C@H](C(=O)N[C@@H](CCCNC(=N)N)C(=O)N[C@@H](CO)C(=O)N[C@@H](CO)C(=O)N[C@@H](CC(N)=O)C(=O)N(C)[C@@H](CC(=O)O)C(=O)N[C@@H](Cc1ccccc1)C(=O)NCC(=O)N1CCC[C@H]1C(=O)N[C@@H](CCCCN)C(=O)N[C@@H](CC(C)C)C(=O)N1CCC[C@H]1C(=O)N1CCC[C@H]1C(=O)N[C@H](C(=O)N[C@@H](CCC(=O)O)C(=O)N[C@H](C(=O)NCC(=O)N[C@@H](CO)C(=O)N[C@@H](CC(N)=O)C(=O)N[C@H](C(=O)N[C@@H](Cc1ccc(O)cc1)C(N)=O)[C@@H](C)O)C(C)C)[C@@H](C)O)C(C)C [Compound III, γE-CNTATCATG-Orn-LAE-αMeF-LVRSSN-NMeD-FGPKLPPTEVGSNTY-NH2] (γGlu-CNTATCATG[Orn]LAE[αMeF]LVRSSN[NMeD]FGPKLPPTEVGSNTY-NH2; linker 1-6 via CH2)
3 | 0.139 ± 0.017 | 17 ± 2.44 | CC[C@H](C)[C@H](NC(=O)[C@@H]1CCCN1C(=O)CNC(=O)[C@H](Cc1ccccc1)NC(=O)[C@H](CC(=O)O)N(C)C(=O)[C@H](CC(N)=O)NC(=O)[C@H](CO)NC(=O)[C@H](CO)NC(=O)[C@H](CCCNC(=N)N)NC(=O)[C@@H](NC(=O)[C@H](CC(C)C)NC(=O)[C@](C)(Cc1ccccc1)NC(=O)[C@H](CCC(=O)O)NC(=O)[C@H](C)NC(=O)[C@H](CC(C)C)NC(=O)[C@H](CCCN)NC(=O)CNC(=O)[C@@H](NC(=O)[C@H](C)NC(=O)[C@@H]1CSCSC[C@H](NC(=O)[C@@H](N)CCCCN)C(=O)N[C@@H](CCC(=O)O)C(=O)N[C@@H]([C@@H](C)O)C(=O)N[C@@H](C)C(=O)N[C@@H]([C@@H](C)O)C(=O)N1)[C@@H](C)O)C(C)C)C(=O)N[C@@H](CC(C)C)C(=O)N1CCC[C@H]1C(=O)N1CCC[C@H]1C(=O)N[C@H](C(=O)N[C@@H](CCC(=O)O)C(=O)N[C@H](C(=O)NCC(=O)N[C@@H](CO)C(=O)N[C@@H](CC(N)=O)C(=O)N[C@H](C(=O)N[C@@H](Cc1ccc(O)cc1)C(N)=O)[C@@H](C)O)C(C)C)[C@@H](C)O [Compound V, KCETATCATG-Orn-LAE-αMeF-LVRSSN-NMeD-FGPILPPTEVGSNTY-NH2] (H-KCETATCATG[Orn]LAE[αMeF]LVRSSN[NMeD]FGPILPPTEVGSNTY-NH2; linker 2-7 via CH2)

More lines, now with the values behind:

Row | Compound | EC50 (hAMY1R) [nM] | EC50 (human CT receptors) [nM]
4 | CC(C)C[C@H](NC(=O)[C@H](CCCCN)NC(=O)CNC(=O)[C@@H](NC(=O)[C@H](C)NC(=O)[C@@H]1CSCSC[C@H](NC(=O)CC[C@H](N)C(=O)O)C(=O)N[C@@H](CC(N)=O)C(=O)N[C@@H]([C@@H](C)O)C(=O)N[C@@H](C)C(=O)N[C@@H]([C@@H](C)O)C(=O)N1)[C@@H](C)O)C(=O)N[C@@H](C)C(=O)N[C@@H](CCC(=O)O)C(=O)N[C@@H](Cc1ccccc1)C(=O)N[C@@H](CC(C)C)C(=O)N[C@H](C(=O)N[C@@H](CCCNC(=N)N)C(=O)N[C@@H](CO)C(=O)N[C@@H](CO)C(=O)N[C@@H](CC(N)=O)C(=O)N[C@@H](CC(N)=O)C(=O)N[C@@H](Cc1ccccc1)C(=O)NCC(=O)N1CCC[C@H]1C(=O)N[C@@H](CCCCNC(=O)COCCOCCNC(=O)COCCOCCNC(=O)CC[C@H](NC(=O)CCCCCCCCCCCCCCCCCCC(=O)O)C(=O)O)C(=O)N[C@@H](CC(C)C)C(=O)N1CCC[C@H]1C(=O)N1CCC[C@H]1C(=O)N[C@H](C(=O)N[C@@H](CCC(=O)O)C(=O)N[C@H](C(=O)NCC(=O)N[C@@H](CO)C(=O)N[C@@H](CC(N)=O)C(=O)N[C@H](C(=O)N[C@@H](Cc1ccc(O)cc1)C(N)=O)[C@@H](C)O)C(C)C)[C@@H](C)O)C(C)C [Compound IX] (γGlu-CNTATCATGKLAEFLVRSSNNFGPK([AEEA-AEEA-γGlu-C20 diacid])LPPTEVGSNTY-NH2; linker 1-6 via CH2) | 0.132 ± 0.02 | 18.9 ± 3.83
5 | CC[C@H](C)[C@H](NC(=O)[C@@H]1CCCN1C(=O)CNC(=O)[C@H](Cc1ccccc1)NC(=O)[C@H](CC(N)=O)NC(=O)[C@H](Cc1c[nH]cn1)NC(=O)[C@H](CO)NC(=O)[C@H](CO)NC(=O)[C@H](CCCNC(=N)N)NC(=O)[C@@H](NC(=O)[C@H](CC(C)C)NC(=O)[C@H](Cc1ccccc1)NC(=O)[C@H](CCC(=O)O)NC(=O)[C@H](C)NC(=O)[C@](C)(CC(C)C)NC(=O)[C@H](CCCN)NC(=O)CNC(=O)[C@@H](NC(=O)[C@H](C)NC(=O)[C@@H]1CSCSC[C@H](NC(=O)[C@@H](N)CCCCN)C(=O)N[C@@H](CCC(=O)O)C(=O)N[C@@H]([C@@H](C)O)C(=O)N[C@@H](C)C(=O)N[C@@H]([C@@H](C)O)C(=O)N1)[C@@H](C)O)C(C)C)C(=O)N[C@@H](CC(C)C)C(=O)N1CCC[C@H]1C(=O)N1CCC[C@H]1C(=O)N[C@H](C(=O)N[C@@H](CCC(=O)O)C(=O)N[C@H](C(=O)NCC(=O)N[C@@H](CO)C(=O)N[C@@H](CC(N)=O)C(=O)N[C@H](C(=O)N[C@@H](Cc1ccc(O)cc1)C(N)=O)[C@@H](C)O)C(C)C)[C@@H](C)O [Compound VII] (H-KCETATCATG[Orn][αMeL]AEFLVRSSHNFGPILPPTEVGSNTY-NH2; linker 2-7 via CH2) | 0.173 ± 0.034 | 11.9 ± 1.53
6 | CC(C)C[C@H](NC(=O)[C@H](CCCN)NC(=O)CNC(=O)[C@@H](NC(=O)[C@H](C)NC(=O)[C@@H]1CSCSC[C@H](NC(=O)CC[C@H](N)C(=O)O)C(=O)NCC(=O)N[C@@H]([C@@H](C)O)C(=O)N[C@@H](C)C(=O)N[C@@H]([C@@H](C)O)C(=O)N1)[C@@H](C)O)C(=O)N[C@@H](C)C(=O)N[C@@H](CCC(=O)O)C(=O)N[C@@H](Cc1ccccc1)C(=O)N[C@@H](CC(C)C)C(=O)N[C@H](C(=O)N[C@@H](CCCNC(=N)N)C(=O)N[C@@H](CO)C(=O)N[C@@H](CO)C(=O)N[C@@H](CC(N)=O)C(=O)N[C@@H](CC(N)=O)C(=O)N[C@@H](Cc1ccccc1)C(=O)NCC(=O)N1CCC[C@H]1C(=O)N[C@@H](CCCCNC(=O)CC[C@H](NC(=O)CC[C@H](NC(=O)CCCCCCCCCCCCCCCCCCC(=O)O)C(=O)O)C(=O)O)C(=O)N[C@@H](CC(C)C)C(=O)N1CCC[C@H]1C(=O)N1CCC[C@H]1C(=O)N[C@H](C(=O)N[C@@H](CCC(=O)O)C(=O)N[C@H](C(=O)NCC(=O)N[C@@H](CO)C(=O)N[C@@H](CC(N)=O)C(=O)N[C@H](C(=O)N[C@@H](Cc1ccc(O)cc1)C(N)=O)[C@@H](C)O)C(C)C)[C@@H](C)O)C(C)C [Compound XIII] (γGlu-CGTATCATG[Orn]LAEFLVRSSNNFGPK([γGlu-γGlu-C20 diacid])LPPTEVGSNTY-NH2; linker 1-6 via CH2) | 0.078 ± 0.014 | 9.49 ± 1.54
